Legend:
[1] = tested on: osteoclast activity (as measured by bone resorption); assay: zoledronate concentration versus bone resorption (FIG. 3); type: cell-based; conditions: osteoclast activity decreases significantly compared to lower concentrations
From the text: (§1) The graphs in FIGS. 3 and 4 depict the optimal concentrations of zoledronate (derived from zoledronic acid as the bisphosphonate) required to suppress bone resorption by means of a proportionate decrease in osteoclast number.

osteoclast number = assay: zoledronate concentration versus osteoclast number (FIG. 4); type: cell-based; conditions: compared to lower concentrations
From the text: as §1

O=P(O)(O)C(O)(Cn1ccnc1)P(=O)(O)O [zoledronic acid]
concentration of optimal efficacy to suppress bone resorption [1]: approximately 10^−6 M
concentration of optimal efficacy to decrease osteoclast number (osteoclast number): approximately 10^−6 M
